Legend:
[1] = system: Blumeria graminis f. sp. tritici (Erysiphe graminis f. sp. tritici); test: Blumeria graminis f. sp. tritici / wheat / leaf disc preventative (powdery mildew on wheat); type: in vivo; conditions: foliar, wheat leaf segments cv. Kanzler, inoculated 1 day after application, assessed 6-8 days after application, read-out: control of Blumeria graminis f. sp. tritici (percent disease control compared to untreated)
Source text: Example B4: Blumeria graminis f. sp. tritici (Erysiphe graminis f. sp. tritici)/Wheat/Leaf Disc Preventative (Powdery Mildew on Wheat) Wheat leaf segments cv. Kanzler are placed on agar in a multiwell plate (24-well format) and sprayed with the formulated test compound diluted in water. The leaf disks are inoculated by shaking powdery mildew infected plants above the test plates 1 day after application. […] […]-192.

[2] = system: Magnaporthe grisea (Pyricularia oryzae); test: whole plant or invertebrate; type: in vivo; conditions: foliar, read-out: control of Magnaporthe grisea (percent disease control compared to untreated)
[3] = system: Mycosphaerella graminicola (Septoria tritici); test: Mycosphaerella graminicola (Septoria tritici) / liquid culture (Septoria blotch); type: cell-based; conditions: Zymoseptoria tritici, PDB potato dextrose broth, 24° C., 4-5 days after application, read-out: control of Mycosphaerella graminicola (inhibition of growth, photometric)
Method: (§1) Example B15: Mycosphaerella graminicola (Septoria tritici)/Liquid Culture (Septoria Blotch) Conidia of the fungus from cryogenic storage are directly mixed into nutrient broth (PDB potato dextrose broth). After placing a (DMSO) solution of test compound into a microtiter plate (96-well format), the nutrient broth containing the fungal spores is added. The test plates are incubated at 24° C. and the inhibition of growth is determined photometrically 4-5 days after application. […] […]-191.

[4] = system: Monographella nivalis (Microdochium nivale); test: Monographella nivalis (Microdochium nivale) / liquid culture (foot rot cereals); type: cell-based; conditions: PDB potato dextrose broth, 24° C., 4-5 days after application, read-out: control of Monographella nivalis (inhibition of growth, photometric)
Method: Example B7: Monographella nivalis (Microdochium nivale)/Liquid Culture (Foot Rot Cereals) Conidia of the fungus from cryogenic storage are directly mixed into nutrient broth (PDB potato dextrose broth). After placing a (DMSO) solution of test compound into a microtiter plate (96-well format), the nutrient broth containing the fungal spores is added. The test plates are incubated at 24° C. and the inhibition of growth is determined photometrically 4-5 days after application. […] […]-190.

[5] = system: Glomerella lagenarium (Colletotrichum lagenarium); test: Glomerella lagenarium (Colletotrichum lagenarium) / liquid culture (anthracnose); type: cell-based; conditions: Colletotrichum orbiculare, PDB potato dextrose broth, 24° C., 3-4 days after application, read-out: control of Glomerella lagenarium (inhibition of growth, photometric)
Method: as §1, with “B3: Glomerella lagenarium (Colletotrichum lagenarium)/Liquid” for “B15: Mycosphaerella graminicola (Septoria tritici)/Liquid”, “(Anthracnose)” for “(Septoria Blotch)”, “measured” for “determined”, “3-4” for “4-5”

SMILES	pest or weed control at 200 ppm [1]	pest or weed control at 200 ppm [2]	inhibition at 20 ppm [3]	inhibition at 20 ppm [4]	inhibition at 20 ppm [5]
COc1ccc(N(C(C)=O)c2cc(F)nc(F)c2)nc1C(=O)NC1CCC1(C)C (centres unmarked) [Compound P-192, 6-[acetyl-(2,6-difluoro-4-pyridyl)amino]-N-(2,2-dimethylcyclobutyl)-3-methoxy-pyridine-2-carboxamide]	≥ 80%	≥ 80%			
COc1ccc(Nc2cncc(F)c2)nc1C(=O)NC1CCC1(C)C (centres unmarked) [Compound P-104, N-(2,2-dimethylcyclobutyl)-6-[(5-fluoro-3-pyridyl)amino]-3-methoxy-pyridine-2-carboxamide]	≥ 80%	≥ 80%	≥ 80%	≥ 80%	≥ 80%
COc1ccc(Nc2cc(F)nc(F)c2)nc1C(=O)NC1(C#N)CCC1 [Compound P-126, N-(1-cyanocyclobutyl)-6-[(2,6-difluoro-4-pyridyl)amino]-3-methoxy-pyridine-2-carboxamide]		≥ 80%			
COc1ccc(Nc2cc(F)c(Cl)c(F)c2)nc1C(=O)NC(C)(C)C [Compound P-153, N-tert-butyl-6-(4-chloro-3,5-difluoro-anilino)-3-methoxy-pyridine-2-carboxamide]	≥ 80%	≥ 80%	≥ 80%	≥ 80%	≥ 80%
COc1ccc(Nc2cc(F)cc(F)c2)nc1C(=O)NC1(C#N)CCC1 [Compound P-129, N-(1-cyanocyclobutyl)-6-(3,5-difluoroanilino)-3-methoxy-pyridine-2-carboxamide]		≥ 80%	≥ 80%		≥ 80%
CC(C)(C)CNC(=O)c1cccc(Nc2cc(F)cc(F)c2)n1 [Compound P-111, 6-(3,5-difluoroanilino)-N-(2,2-dimethylpropyl)pyridine-2-carboxamide]		≥ 80%	≥ 80%	≥ 80%	≥ 80%
COc1ccc(Nc2cc(F)cc(F)c2)nc1C(=O)NC1CC2CCOC21 (centres unmarked) [Compound P-59, 6-(3,5-difluoroanilino)-3-methoxy-N-(2-oxabicyclo[3.2.0]heptan-7-yl)pyridine-2-carboxamide]	≥ 80%		≥ 80%		≥ 80%
COc1ccc(Nc2ccc(Cl)c(F)c2)nc1C(=O)NCC(C)(C)C [Compound P-144, 6-(4-chloro-3-fluoro-anilino)-N-(2,2-dimethylpropyl)-3-methoxy-pyridine-2-carboxamide]		≥ 80%	≥ 80%	≥ 80%	≥ 80%
COc1ccc(Nc2cc(F)cc(F)c2)nc1C(=O)NC1(C)COC1 [Compound P-128, 6-(3,5-difluoroanilino)-3-methoxy-N-(3-methyloxetan-3-yl)pyridine-2-carboxamide]	≥ 80%	≥ 80%	≥ 80%		≥ 80%
COc1ccc(N(C#N)c2cc(F)cc(F)c2)nc1C(=O)NC1CCC1(C)C (centres unmarked) [Compound P-20, 6-(N-cyano-3,5-difluoro-anilino)-N-(2,2-dimethylcyclobutyl)-3-methoxy-pyridine-2-carboxamide]	≥ 80%	≥ 80%	≥ 80%		≥ 80%
CCOc1ccc(Nc2cc(F)nc(F)c2)nc1C(=O)NC(C)(C)C [Compound P-95, N-tert-butyl-6-[(2,6-difluoro-4-pyridyl)amino]-3-ethoxy-pyridine-2-carboxamide]	≥ 80%	≥ 80%		≥ 80%	≥ 80%
COc1ccc(Nc2cnsc2)nc1C(=O)NC1CCC12CCCC2 (centres unmarked) [Compound P-33, 6-(isothiazol-4-ylamino)-3-methoxy-N-spiro[3.4]octan-3-yl-pyridine-2-carboxamide]		≥ 80%	≥ 80%	≥ 80%	≥ 80%
COc1ccc(Nc2cc(F)nc(F)c2)nc1C(=O)NCC#CC(C)(C)C [Compound P-35, 6-[(2,6-difluoro-4-pyridyl)amino]-N-(4,4-dimethylpent-2-ynyl)-3-methoxy-pyridine-2-carboxamide]		≥ 80%	≥ 80%		
COc1ccc(Nc2cc(F)cc(F)c2)nc1C(=O)NC(C)c1ncc(C)o1 (centres unmarked) [Compound P-71, 6-(3,5-difluoroanilino)-3-methoxy-N-[1-(5-methyloxazol-2-yl)ethyl]pyridine-2-carboxamide]		≥ 80%	≥ 80%		≥ 80%
COc1ccc(Nc2cc(F)nc(F)c2)nc1C(=O)NC1(Cc2ccc(Cl)cc2)CC1 [Compound P-90, N-[1-[(4-chlorophenyl)methyl]cyclopropyl]-6-[(2,6-difluoro-4-pyridyl)amino]-3-methoxy-pyridine-2-carboxamide]		≥ 80%			≥ 80%
COc1ccc(Nc2cc(F)nc(F)c2)nc1C(=O)NCC(C)c1ccccc1 (centres unmarked) [Compound P-32, 6-[(2,6-difluoro-4-pyridyl)amino]-3-methoxy-N-(2-phenylpropyl)pyridine-2-carboxamide]		≥ 80%	≥ 80%		
COc1ccc(Nc2cc(F)cc(F)c2)nc1C(=O)NC1(C#N)CSC1 [Compound P-121, N-(3-cyanothietan-3-yl)-6-(3,5-difluoroanilino)-3-methoxy-pyridine-2-carboxamide]	≥ 80%		≥ 80%	≥ 80%	≥ 80%
COc1ccc(Nc2ccc3c(c2)OCO3)nc1C(=O)NC(C)(C)C [Compound P-159, 6-(1,3-benzodioxo1-5-ylamino)-N-tert-butyl-3-methoxy-pyridine-2-carboxamide]		≥ 80%			
COc1cnc(Nc2cc(F)nc(F)c2)nc1C(=O)NCCC(C)C [Compound P-9, 2-[(2,6-difluoro-4-pyridyl)amino]-N-isopentyl-5-methoxy-pyrimidine-4-carboxamide]	≥ 80%				
COc1ccc(Nc2cc(F)cc(F)c2)nc1C(=O)NCc1cnn(C)n1 [Compound P-69, 6-(3,5-difluoroanilino)-3-methoxy-N-[(2-methyltriazol-4-yl)methyl]pyridine-2-carboxamide]		≥ 80%			
COc1ccc(Nc2cc(F)nc(F)c2)nc1C(=O)NCC1(C)CCOC2(CCC2)C1 (centres unmarked) [Compound P-52, 6-[(2,6-difluoro-4-pyridyl)amino]-3-methoxy-N-[(8-methyl-5-oxaspiro[3.5]nonan-8-yl)methyl]pyridine-2-carboxamide]	≥ 80%	≥ 80%			≥ 80%
COc1ccc(Nc2cc(F)nc(F)c2)nc1C(=O)NC1(c2ccc(F)cc2)CC1 [Compound P-89, 6-[(2,6-difluoro-4-pyridyl)amino]-N-[1-(4-fluorophenyl)cyclopropyl]-3-methoxy-pyridine-2-carboxamide]		≥ 80%			
COc1ccc(Nc2cc(F)cc(F)c2)nc1C(=O)NC(C)C1CCOCC1 (centres unmarked) [Compound P-61, 6-(3,5-difluoroanilino)-3-methoxy-N-(1-tetrahydropyran-4-ylethyl)pyridine-2-carboxamide]	≥ 80%	≥ 80%			≥ 80%
COc1ccc(Nc2ccc(C#N)c(F)c2)nc1C(=O)NC(C)(C)C [Compound P-164, N-tert-butyl-6-(4-cyano-3-fluoro-anilino)-3-methoxy-pyridine-2-carboxamide]	≥ 80%	≥ 80%			
COc1ccc(Nc2cc(F)nc(F)c2)nc1C(=O)NCC1(C(F)(F)F)CC1 [Compound P-49, 6-[(2,6-difluoro-4-pyridyl)amino]-3-methoxy-N-[[1-(trifluoromethyl)cyclopropyl]methyl]pyridine-2-carboxamide]		≥ 80%			
COc1ccc(Nc2cncc(F)c2)nc1C(=O)NC(C)(C)C [Compound P-103, N-tert-butyl-6-[(5-fluoro-3-pyridyl)amino]-3-methoxy-pyridine-2-carboxamide]	≥ 80%	≥ 80%			

— patent US12458021B2, “Microbiocidal derivatives” (SYNGENTA CROP PROTECTION AG, priority 2019, dated 2025)
